# “And” between values parts separate entries of the source, which are not always exact repeats. Equal values may be shown once.
# Experiments:
# [1] = tested on: L929 cells; set-up: method as in PMID 32485864; details: L929, 24 h, 2.5–40 mg L^−1, MTT assay; cited from earlier work
# [2] = Thermogravimetric (TG) analysis, thermal stability; format: physicochemical
# Experimental: Samples of 2–5 mg, loaded in aluminium crucibles, were heated from 30 °C to 600 °C at the heating rate of 10 °C·min^−1, in the air atmosphere (25 mL·min^−1) with nitrogen flow (10 mL·min^−1) as the purge gas.
# [3] = tested on: 3T3-L1 cells; set-up: method as in PMID 29077251; details: 3T3-L1, 500 μg mL^−1; cited from earlier work
# [4] = tested on: NRK-52E cells; set-up: method as in doi:10.1016/j.jddst.2022.103621; details: 75 μM, high glucose environment; cited from earlier work
# [5] = tested on: diabetic rats; set-up: method as in doi:10.1016/j.jddst.2022.103621; details: 50 mg kg^−1 body wt., orally for 8 weeks; cited from earlier work
# [6] = tested on: cancer cells (HepG2); set-up: method as in PMID 29077251; details: HepG2, 500 μg mL^−1; cited from earlier work
# [7] = DPPH antioxidant activity of acceptor fluid after 24 h permeation; set-up: species or system pig; details: after 24 h penetration
# Experimental: (§1) To determine the antioxidant capacity of ferulic acid and its derivatives the DPPH method was used. The analyses were performed using the Hitachi UV-Vis Spectrophotometer U-5100 at the wavelength λ = 517 nm. Trolox (6-hydroxy-2,5,7,8-tetramethylchroman-2-carboxylic acid) was used as a reference substance. The antioxidant activity was expressed as %RSA and mmol Trolox dm^−3. […]. Blank samples without antioxidant were prepared in the same way. The tubes were wrapped in aluminum foil and were sealed with a stopper and then incubated for 10 min at room temperature. After this time, spectrophotometric measurements were carried out in triplicate. For determination of antioxidant activity of the acceptor fluid after 24 h of permeation and solutions obtained by extraction of the skin obtained after penetration study, 0.15 mL samples of each solutions were separately added to 2.85 mL of DPPH solution and spectrophotometric measurements were performed. The antioxidant activity was expressed as mmol Trolox·dm^−3.
# The permeation experiments were performed using Franz diffusion cells (Phoenix DB-6, ABL&E-JASCO, Wien, Austria). The diffusion was 1 cm^2. The volume of the acceptor chamber was 8 mL. This chamber was filled with PBS solution (pH 7.4). During experiment, a constant temperature of 37.0 ± 0.5 °C was maintained in each diffusion unit. The acceptor chamber content was stirred with a magnetic stirring bar at the same speed for all cells. The prepared pig skin was mounted on each donor chamber. As previously mentioned, only undamaged skin pieces with an even thickness were chosen for experiments. Thereafter, the hydrogel or emulsion vehicle/preparation in 1 g portion was put on the skin in donor cells. For comparison, 1 mL ethanolic solution containing either FA or its derivatives was applied to another donor chamber. The amount of the FA and its derivatives applied on the skin expressed as the mass of ferulic acid was 0.01 g and was the same for each carrier. The penetration experiments were carried out for 24 h. The samples were collected after 1 h, 2 h, 3 h, 4 h, 5 h, 6 h, 8 h, and 24 h. Aliquots of the acceptor fluid (0.5 mL) were withdrawn and to each acceptor chamber the same volume of fresh PBS solution was added. The FA and its derivatives’ concentrations in the acceptor fluid were measured by HPLC method (Section 2.6.2). The cumulative mass (µg·cm^−2) and penetration rate (µg·cm^−2·h^−1) were calculated. The acceptor fluid collected after 24 h of permeation was also measured for antioxidant activity and total polyphenol content (as described in Section 2.5.1 and Section 2.5.2).
# [8] = DPPH radical scavenging assay of the compounds
# Experimental: as §1
# [9] = tested on: L929 cells; set-up: method as in PMID 32485864; details: L929, 24 h, highest tested concentration of 2.5–40 mg L^−1, Trypan blue; cited from earlier work
# [10] = DPPH antioxidant activity of solution obtained after skin extraction; set-up: species or system pig; details: after 24 h penetration, listed as FA
# Experimental: as §1
# The accumulation of the FA and its derivatives in the skin after 24 h permeation process through the skin were determined using a modification of the methods described by Janus et al. and Taokaew et al.. After 24 h of permeation experiment, the skin samples were removed from the Franz diffusion cell, washed three times with 0.5% sodium lauryl sulfate solution and dried at room temperature. Next, after cutting out the diffusion area of each skin sample, the samples were immersed in 2 mL of absolute ethanol and continuously stirred at 300 rpm at room temperature for 24 h. The samples were then centrifuged, and clear solutions were collected and analyzed by HPLC method for the determination of FA and its derivatives. The accumulation of the active substance in the skin was calculated by dividing the amount of the drug remaining in the skin by a mass of skin sample and was expressed in mass active substance per mass of the skin (µg g^−1). For solution obtained after skin extraction, the antioxidant activity and total polyphenol content were also determined (as described in Section 2.5.1 and Section 2.5.2).
# [11] = tested on: NIH-3T3 cells; set-up: method as in PMID 29077251; details: NIH-3T3, 500 μg mL^−1; cited from earlier work
# [12] = tested on: Murine fibroblasts (L929); assay: Cytotoxicity, PrestoBlue resazurin-based cell viability assay; details: 0.03125–2.0 mM (any dosage), 24 h
# Experimental: The cell biocompatibility was evaluated using a PrestoBlue HS Cell Viability Reagent (Thermo Fisher Scientific, MA USA) based on the reduction of the resazurin to highly fluorescent resorufin, of which the amount is directly correlated to the number of living cells. […] The cells without tested compounds were used as control. The interaction of tested compounds without cells and Prestoblue Reagent (blank wells) was excluded. After 24 h of treatment, optical microscopy imaging of L929 cells was performed using Smart Fluorescent Cell Analyzer Microscope JuLi (Seoul, Korea). Next, the PrestoBlue reagent (10 μL) was added to each well and incubated for 30 min. The fluorescence was measured using a spectrophotometric microplate reader (Infinite 200 Pro, Tecan, Männedorf, Switzerland) at ex/em: 560/594 nm. The readings were acquired from at least three independent experiments (each conducted in triplicate) and normalized to the control (100% viability).
# [13] = tested on: fibroblasts; set-up: method as in doi:10.3390/pr9071204; details: fibroblasts after UVB irradiation, increased from 9.92%; cited from earlier work
# [14] = molar ratio antioxidant:DPPH 0.1, 10 min, listed as FA
# [15] = molar ratio antioxidant:DPPH 1.0, 10 min
# [16] = molar ratio antioxidant:DPPH 2.0, 10 min, listed as FA
smiles,measurement,setting,value
COc1cc(/C=C/C(=O)O)ccc1O [Ferulic acid],effect on cell viability/proliferation,[1],no effect on cell viability/proliferation
same,"Td onset, the onset of decomposition","[2]; TG, air atmosphere, 10 °C·min^−1",217.0 °C
same,"Td max, temperature of the fastest mass loss of the sample","[2]; TG/DTG, air atmosphere, 10 °C·min^−1",251.2 °C
same,Temperature range of decomposition (main weight loss),[2]; according to the DTG curve,175–300 °C
same,toxicity on normal cells,[3],did not cause any toxicity
same,effect in cultured NRK-52E cells,[4],"countered excessive ROS generation, induced autophagy, and inhibited apoptotic death of cells"
same,effect in diabetic rats,[5],"markedly ameliorated kidney injury, renal cell apoptosis, inflammation, and defective autophagy in the kidneys"
same,viability of cancer cells,[6],significantly decreased the viability
same,DPPH antioxidant activity of the acceptor fluid,[7]; emulsion,0.057 ± 0.004 a mmol Trolox dm^−3
same,DPPH antioxidant activity of the acceptor fluid,"[7]; ethanol solution, listed as FA",0.079 ± 0.010 mmol Trolox dm^−3 and 0.079 ± 0.010 a mmol Trolox dm^−3
same,DPPH antioxidant activity of the acceptor fluid,[7]; hydrogel,0.067 ± 0.004 a mmol Trolox dm^−3
same,Antioxidant activity %RSA,[8]; [14],12.4 ± 0.001 %RSA and 12.4 ± 0.001 a %RSA
same,"Antioxidant activity, Trolox equivalents",[8]; [14],0.049 ± 0.001 mmol Trolox dm^−3 and 0.049 ± 0.001 a mmol Trolox dm^−3
same,Antioxidant activity %RSA,[8]; [15],73.2 ± 0.001 b %RSA
same,"Antioxidant activity, Trolox equivalents",[8]; [15],0.635 ± 0.001 b mmol Trolox dm^−3
same,Antioxidant activity %RSA,[8]; [16],86.5 ± 0.001 %RSA and 86.5 ± 0.001 b %RSA
same,"Antioxidant activity, Trolox equivalents",[8]; [16],0.763 ± 0.001 mmol Trolox dm^−3 and 0.763 ± 0.001 b mmol Trolox dm^−3
same,cell viability,[9],80%
same,DPPH antioxidant activity of the solution obtained after skin extraction,[10]; emulsion,0.300 ± 0.024 b mmol Trolox dm^−3
same,DPPH antioxidant activity of the solution obtained after skin extraction,[10]; ethanol solution,0.394 ± 0.004 mmol Trolox dm^−3 and 0.394 ± 0.004 b mmol Trolox dm^−3
same,DPPH antioxidant activity of the solution obtained after skin extraction,[10]; hydrogel,0.381 ± 0.011 mmol Trolox dm^−3 and 0.381 ± 0.011 b mmol Trolox dm^−3
same,toxicity on normal cells,[11],did not cause any toxicity
same,Difference in L929 viability between control and treated cells,[12],No statistically significant differences in viability
same,percentage of viable cells,[13],46.02%

# Reference: PMC9861623, “New Ferulic Acid and Amino Acid Derivatives with Increased Cosmeceutical and Pharmaceutical Potential” (Pharmaceutics, 2022)
